According to patent US6656911B2, “Serine protease inhibitors” (Cortech, Inc., priority 1994, dated 2003):

Target: T1, human neutrophil elastase (HNE) (Homo sapiens, UniProt P08246)
T1 sequence (P08246 30-267): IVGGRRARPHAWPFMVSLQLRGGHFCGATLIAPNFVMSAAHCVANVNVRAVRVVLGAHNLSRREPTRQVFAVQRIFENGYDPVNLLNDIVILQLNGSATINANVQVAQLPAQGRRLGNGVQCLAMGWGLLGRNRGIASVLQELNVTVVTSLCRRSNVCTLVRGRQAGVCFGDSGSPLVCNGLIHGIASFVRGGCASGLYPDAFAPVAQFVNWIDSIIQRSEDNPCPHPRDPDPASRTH
Assay: HNE Ki of CE compounds, tested as described in WO 96/16080
Type: biochemical
Settings: read-out: HNE Ki

SMILES	Ki
COC(=O)c1c(F)c2ccccc2n(CC(=O)N[C@H](C(=O)c2nnc(Cc3cccc(C)c3)o2)C(C)C)c1=O [CE2117, 3-Carbomethoxy-4-fluoro-quinoline-2-one-N-[1-(2-[5-(3-methylbenzyl)-1,3,4-oxadiazolyl]carbonyl)-2-(S)-methylpropyl]acetamide]	586 nM
Cc1cccc(Cc2nnc(C(=O)C(NC(=O)CN3C(=O)CCSC3c3ccccc3)C(C)C)o2)c1 [CE2118, 2-[2-(R,S)-Phenyl-4-oxometathiazan-3-yl]-N-[1-(2-[5-(3-methylbenzyl)-1,3,4-oxadiazolyl]carbonyl)-2-(S)-methylpropyl]acetamide]	13.2 nM
Cc1cccc(Cc2nnc(C(=O)C(NC(=O)CN3C(=O)CSC3c3ccccc3)C(C)C)o2)c1 [CE2121, 2-[2-(R,S)-Phenyl-4-oxothiazolidin-3-yl]-N-[1-(2-[5-(3-methylbenzyl)-1,3,4-oxadiazolyl]carbonyl)-2-(S)-methylpropyl]acetamide]	28 nM
CC(C)[C@H](NC(=O)CN1C(=O)CN(Cc2ccccc2)C(=O)[C@@H]1Cc1ccccc1)C(=O)c1noc(Cc2cccc(C(F)(F)F)c2)n1 [CE2129, 4-[1-Benzyl-3-(S)-benzylpiperazine-2,5,-dione]-N-[1-(3-[5-(3-trifluoromethylbenzyl)-1,2,4-oxadiazolyl]carbonyl)-2-(S)-methylpropyl]acetamide]	300 nM
CC(C)[C@H](NC(=O)CN1C(=O)CN(Cc2ccccc2)C(=O)[C@@H]1Cc1ccccc1)C(=O)c1noc(CCN(C)C)n1 [CE2133, 4-[1-Benzyl-3-(S)-benzylpiperazine-2,5,-dione]-N-[1-(3-[5-(2-dimethylaminoethyl)-1,2,4-oxadiazolyl]carbonyl)-2-(S)-methylpropyl]acetamide]	33000 nM
Cc1cccc(Cc2nnc(C(=O)C(NC(=O)CN3C(=O)C[S+]([O-])C3Cc3ccccc3)C(C)C)o2)c1 [CE2136, 2-[(2-(R,S)-Benzyl-4-oxothiazolidin-3-yloxide]-N-[1-(2-[5-(3-methylbenzyl)-1,3,4-oxadiazolyl]carbonyl)-2-(R,S)-methylpropyl]acetamide]	104 nM
CC(C)C(NC(=O)CN1C(=O)C[S+]([O-])C1Cc1ccccc1)C(=O)c1noc(Cc2cccc(C(F)(F)F)c2)n1 [CE2137, 2-[2-(R,S)-Benzyl-4-oxothiazolidin-3-yloxide]-N-[1-(3-[5-(3-trifluoromethylbenzyl)-1,2,4-oxadiazolyl]carbonyl)-2-(R,S)-methylpropyl]acetamide]	558 nM
Cc1cccc(Cc2nnc(C(=O)[C@@H](NC(=O)CN3CC(=O)N(C(=O)c4ccccc4)CC3=O)C(C)C)o2)c1 [CE2138, (1-Benzoyl-3,6-piperazinedione)-N-[1-(2-[5-(3-S methylbenzyl)-1,3,4-oxadiazolyl]carbonyl)-2-(S)-methylpropyl]acetamide]	294 nM
CC(=O)N1c2ccccc2C[C@H]1C(=O)N[C@H](C(=O)c1noc(Cc2cccc(C(F)(F)F)c2)n1)C(C)C [CE2143, Acetyl-2-L-(2,3-dihydro-1H-indole)-N-[1-(3-[5(3-trifluoromethylbenzyl)-1,2,4-oxadiazolyl]carbonyl)-2-(S)-methylpropyl]amide]	11.5 nM
CC(C)[C@H](NC(=O)CN1C(=O)CN(Cc2ccccc2)C(=O)[C@H]1Cc1ccccc1)C(=O)c1noc(Cc2cccc(C(F)(F)F)c2)n1 [CE2146, 4-[1-Benzyl-3-(R)-benzylpiperazine-2,5,-dione]-N-[1-(3-(5-(3-trifluoromethylbenzyl)-1,2,4-oxadiazolyl]carbonyl)-2-(S)-methylpropyl]acetamide]	67 nM
Cc1cccc(Cc2nnc(C(=O)[C@@H](NC(=O)CN3CC(=O)N(c4ccccc4)CC3=O)C(C)C)o2)c1 [CE2147, (1-Phenyl-3,6-piperazinedione)-N-[1-(2-[5-(3-methylbenzyl)-1,3,4-oxadiazolyl]carbonyl)-2-(S)-methylpropyl]acetamide]	1600 nM
CC(C)[C@H](NC(=O)CN1C(=O)N[C@@H](Cc2ccccc2)C1=O)C(=O)c1noc(Cc2cccc(C(F)(F)F)c2)n1 [CE2155, 5-(S)-Benzyl-2,4-imidazolidinedione-N-[1-(3-[5-(3-trifluoromethylbenzyl)-1,2,4-oxadiazolyl]carbonyl)-2-(S)-methylpropyl]acetamide]	57 nM
Cc1cccc(Cc2nnc(C(=O)[C@@H](NC(=O)CN3C(=O)CNC(=O)C3Cc3ccncc3)C(C)C)o2)c1 (stereo partly drawn) [CE2159, 2-(R,S)-[6-(Methylene-4-pyridyl)piperazine-2,5-dione]-N-[1-(2-[5-(3-methylbenzyl)-1,3,4-oxadiazolyl]carbonyl)-2-(S)-methylpropyl]acetamide]	52 nM
CC(C)[C@H](NC(=O)CN1CCCC(NC(=O)OCc2ccccc2)C1=O)C(=O)c1noc(Cc2cccc(C(F)(F)F)c2)n1 (stereo partly drawn) [CE2160, 3-(R,S)-[(Benzyloxycarbonyl)amino-δ-lactam]-N-[1-(3-[5-(3-trifluoromethylbenzyl)-1,2,4-oxadiazolyl]carbonyl)-2-(S)-methylpropyl]acetamide]	260 nM
Cc1cccc(Cc2nnc(C(=O)[C@@H](NC(=O)Cn3c(=O)[nH]n(-c4ccccc4)c3=O)C(C)C)o2)c1 [CE2166, 1-Phenyl-1,2,4-triazolidine-3,5-dione-N-[1-(2-[5-(3-methylbenzyl)-1,3,4-oxadiazolyl]carbonyl)-2-(S)-methylpropyl]acetamide]	145 nM
CC(C)[C@H](NC(=O)[C@@H]1CCCN1C(=O)[C@@H](NC(=O)c1cccnc1)C(C)C)C(=O)c1noc(Cc2cccc(C(F)(F)F)c2)n1 [CE2171, (3-Pyridylcarbonyl)-L-valyl-N-[1-(3-[5-(3-trifluoromethylbenzyl)-1,2,4-oxadiazolyl]carbonyl)-2-(S)-methylpropyl]-L-prolinamide]	0.64 nM
Cc1cccc(Cc2nnc(C(=O)[C@@H](NC(=O)Cn3c(=O)[nH]n(Cc4ccccc4)c3=O)C(C)C)o2)c1 [CE2176, 1-Benzyl-1,2,4-triazolidine-3,5-dione-N-[1-(2-[5-(3-methylbenzyl)-1,3,4-oxadiazolyl]carbonyl)-2-(S)-methylpropyl]acetamide]	52 nM
CC(C)C(NC(=O)CN1C(=O)C(Cc2ccccc2)N(CCN2CCOCC2)C1=O)C(=O)c1noc(Cc2cccc(C(F)(F)F)c2)n1 [CE2180, 1-(N-Morpholinoethyl)-5-(R)-benzyl-2,4-imidazolidinedione-N-[1-(3-[5-(3-trifluoromethylbenzyl)-1,2,4-oxadiazolyl]carbonyl)-2-(R,S)-methylpropyl]acetamide]	44 nM
CC(C)C(NC(=O)CN1C(=O)C(Cc2ccccc2)N(CCN2CCOCC2)C1=O)C(=O)c1noc(Cc2cccc(C(F)(F)F)c2)n1 [CE2181, 1-(N-Morpholinoethyl)-5-(S)-benzyl-2,4-imidazolidinedione-N-[1-(3-[5-(3-trifluoromethylbenzyl)-1,2,4-oxadiazolyl]carbonyl)-2-(R,S)-methylpropyl]acetamide]	46 nM
CC(C)C(NC(=O)CN1C(=O)C(c2ccccc2)N(C)C1=O)C(=O)c1noc(Cc2cccc(C(F)(F)F)c2)n1 [CE2182, 5-(R,S)-Phenyl-1-methyl-2,4-imidazolidinedione-N-[1-(3-[5-(3-trifluoromethylbenzyl)-1,2,4-oxadiazolyl]carbonyl)-2-(S)-methylpropyl]acetamide]	54 nM

Other lines, results leading:

Ki	SMILES
63 nM	Cc1cccc(Cc2nnc(C(=O)[C@@H](NC(=O)CN3C(=O)CSC3Cc3ccccc3)C(C)C)o2)c1 (some centres unmarked) [CE2122]
64 nM	Cc1cccc(Cc2nnc(C(=O)[C@@H](NC(=O)CN3C(=O)CN(Cc4ccccc4)C(=O)[C@@H]3Cc3ccccc3)C(C)C)o2)c1 [CE2128, 4-[1-Benzyl-3-(S)-benzylpiperazine-2,5,-dione]-N-[1-(2-(5-(3-methylbenzyl)-1,3,4-oxadiazolyl]carbonyl)-2-(S)-methylpropyl]acetamide]
204 nM	Cc1cccc(Cc2nnc(C(=O)[C@@H](NC(=O)Cn3c(=O)c4ccccc4n(C(=O)c4ccccc4)c3=O)C(C)C)o2)c1 [CE2140, (1-Benzoyl-3,8-quinazolinedione)-N-[1-(2-[5-(3-methylbenzyl)-1,3,4-oxadiazolyl]carbonyl)-2-(S)-methylpropyl]acetamide]
8.7 nM	Cc1cccc(Cc2nnc(C(=O)[C@@H](NC(=O)CN3C(=O)N[C@H](Cc4ccccc4)C3=O)C(C)C)o2)c1 [CE2142, 5-(R)-Benzyl-2,4-imidazolidinedione-N-[1-(2-[5-(3-methylbenzyl)-1,3,4-oxadiazolyl]carbonyl)-2-(S)-methylpropyl]acetamide]
9.3 nM	Cc1cccc(Cc2nnc(C(=O)[C@@H](NC(=O)CN3C(=O)CN(Cc4ccccc4)C(=O)[C@H]3Cc3ccccc3)C(C)C)o2)c1 [CE2144, 4-[1-Benzyl-3-(R)-benzyl-piperazine-2,5,-dione]-N-[1-([5-(3-methylbenzyl)-1,3,4-oxadiazolyl]carbonyl)-2-(S)-methylpropyl]acetamide]
0.038 nM	Cc1cccc(Cc2nnc(C(=O)[C@@H](NC(=O)[C@@H]3Cc4ccccc4N3C(=O)[C@@H](NC(=O)OCc3ccccc3)C(C)C)C(C)C)o2)c1 [CE2145, (Benzyloxycarbonyl)-L-valyl-2-L-(2,3-dihydro-1H-indole)-N-[1-(2-[5-(3-methylbenzyl)-1,3,4-oxadiazolyl]carbonyl)-2-(S)-methylpropyl]amide]
0.15 nM	Cc1cccc(Cc2nnc(C(=O)[C@@H](NC(=O)[C@@H]3CCCN3C(=O)[C@@H](NS(=O)(=O)c3ccccc3)C(C)C)C(C)C)o2)c1 [CE2168, Phenylsulfonyl-L-valyl-N-[1-(2-[5-(3-methylbenzyl)-1,3,4-oxadiazolyl]carbonyl)-2-(S)-methylpropyl]-L-prolinamide]
297 nM	Cc1cccc(Cc2nnc(C(=O)[C@@H](NC(=O)OCc3ccccc3)C(C)C)o2)c1 [CE2170]
0.23 nM	Cc1cccc(Cc2nnc(C(=O)C(NC(=O)C3Cc4ccccc4CN3C(=O)C(NC(=O)OCc3ccccc3)C(C)C)C(C)C)o2)c1 [CE2183, Benzyloxycarbonyl-L-valyl-(1,2,3,4-tetrahydroisoquinoline)-3-N-[1-(2-[5-(3-methylbenzyl)-1,3,4-oxadiazolyl]carbonyl)-2-(R,S)-methylpropyl]amide]
